In brackets after ≈: the same amount, converted by molar mass. Several values for one entry are separate records, joined by “and”; a condition that tells them apart may be missing. Equal entries are not always repeated. Structures can show the parent of a compound that is named as a salt. Where two headings read alike, the source gives them in different places.
Tests used:
Type in all cases: cell-based
[1] = test system: Staphylococcus aureus (Oxford); assay: Minimum inhibitory concentration (MIC), broth dilution in Iso-Sensitest broth; conditions: S. aureus (Oxford), overnight incubation at 37° C.
Procedure: Staphylococcus aureus (Oxford); Gram positive; Reference strain.
Iso-Sensitest Broth (Oxoid) was used for evaluation of Minimum inhibitory concentrations (MICs), susceptibility tests for antimicrobials, and efficacy of antimicrobial combinations.
The stock solution of each drug was diluted to required concentrations. 10 μl of drug from each dilution was taken and mixed with 290 μl of culture with 10^6 of bacterial cells on a 96-well plate to make the final required concentrations (μg/ml).
The plates were read at 405 nm using a 96-well plate reader Elx 800 equipped with a 405-nm filter (Bio-Tek) before and after incubation. The MIC values of the drugs were determined by comparison of the optical density reading between prior and post drug treatment.

[2] = test system: Staphylococcus aureus (Oxford); assay: Minimum bactericidal concentration (MBC), subculture on drug-free TSA plates; conditions: S. aureus (Oxford)
[3] = test system: log phase Pseudomonas aeruginosa (clinical isolate); assay: Chequerboard analysis of log phase bacteria, optical density at 405 nm / MIC; conditions: for MIC: single agent, range up to 64 μg/ml HT61, 16 μg/ml tobramycin
Procedure: (§1) Pseudomonas aeruginosa (clinical isolate).
P. aeruginosa was grown in 10 ml of NB overnight at 37° C. with continuous shaking at 120 rpm. The overnight cultures were diluted 1000× with iso-sensitest broth to obtain a cell suspension containing the bacteria at 10^6 CFU/ml. The cultures were incubated at 37° C. with shaking for 1-2 hours served as log-phase cultures. Viability of the bacteria was estimated by colony forming unit (CFU) counts.
The two drugs were serially diluted twofold to 0 and combined in a pattern of an array.
The optical density of the bacterial cells was read at 405 nm using a plate reader (Bio TEK). The MIC concentration was determined as the lowest concentration of drug which inhibits the bacterial growth. The MIC values of the drugs were determined by comparison of the optical density reading between prior and post drug treatment.

[4] = test system: stationary phase Pseudomonas aeruginosa (clinical isolate); assay: Kill curve by CFU counts against stationary phase bacteria
Procedure: as §1
A single colony of Ps. aeruginosa was inoculated in 10 ml of Nutrient Broth No. 2 (NB) (Oxoid) which was incubated overnight at 37° C. with continuous shaking at 120 rpm. 200 μl of the overnight culture was added into a 500 ml screw-cap which contained 100 ml of NB. The 100 ml culture was incubated at 37° C. with continuous shaking for 5 to 6 days. The cultures were diluted with phosphate buffered saline to 10^7 CFU/ml.
The activities of the combination and each of the individual drugs were measured by CFU counts at 0, 2, 4, 6 and 8 hours. CFU counts were performed as follows: from serial 10-fold dilutions of the experimental cultures, 100 μl samples were added to triplicate plates of nutrient agar plates (Oxoid). Colony forming units (CFU) were counted after incubation of the plates at 37° C. for 24 hours.

[5] = test system: clinically latent microorganisms; assay: Screening of compounds for ability to kill clinically latent microorganisms (method of WO2000028074); conditions: observed by the Applicant using the method of WO2000028074
Text: International Patent Application, Publication Number WO2000028074 describes a method of screening compounds to determine their ability to kill clinically latent microorganisms. […] This observation has necessitated the development of novel antimicrobials which may be used to kill clinically latent microorganisms.
By way of example, WO2000028074 describes a suitable method of screening compounds to determine their ability to kill clinically latent microorganisms. A typical method may include the following steps: • (1) growing a bacterial culture to stationary phase; • (2) treating the stationary phase culture with one or more antimicrobial agents at a concentration and or time sufficient to kill growing bacteria, thereby selecting a phenotypically resistant sub-population; • (3) incubating a sample of the phenotypically resistant subpopulation with one or more test compounds or agents; and • (4) assessing any antimicrobial effects against the phenotypically resistant subpopulation.

[6] = Staphylococcus aureus, read-out: MIC

With `Cc1nc2ccc(Oc3ccccc3)cc2c2c1CCN2CCc1ccccc1` [4-methyl-8-phenoxy-1-(2-phenylethyl)-2,3-dihydro-1H-pyrrolo[3,2-c]quinoline] the MIC [1, 6] was 8 µg/mL and the MBC ([2]; Staphylococcus aureus, read-out: MBC) was 16 µg/mL (≈ 42.1 µM).

With `Cc1nc2ccc(Oc3ccccc3)cc2c2c1CCN2CCc1ccccc1` [HT61, 4-methyl-8-phenoxy-1-(2-phenylethyl)-2,3-dihydro-1H-pyrrolo[3,2-c]quinoline mesylate] the “optical density at 405 nm” value ([3]; HT61 1 μg/ml alone (tobramycin 0), mesylate) was 3.16 and 3.08, the “optical density at 405 nm” value ([3]; HT61 2 μg/ml alone (tobramycin 0), mesylate) was 3.12 and 3.11 and the “optical density at 405 nm” value ([3]; HT61 4 μg/ml alone (tobramycin 0), mesylate) was 3.11 and 3.10. The “optical density at 405 nm” value ([3]; HT61 8 μg/ml alone (tobramycin 0), mesylate) was 3.15 and 3.10, the “optical density at 405 nm” value ([3]; HT61 16 μg/ml alone (tobramycin 0), mesylate) was 3.11 and 3.07 and the “optical density at 405 nm” value ([3]; HT61 32 μg/ml alone (tobramycin 0), mesylate) was 3.09 and 3.04. The “optical density at 405 nm” value ([3]; HT61 64 μg/ml alone (tobramycin 0), mesylate) was 3.01 and 3.09, the MIC ([3]; log phase P. aeruginosa) was “no MIC” and the “MIC of HT61 in combination with tobramycin” value ([3]; with tobramycin at 0.5 μg/ml, log phase P. aeruginosa) was 16 µg/mL. For the same molecule, the “activity alone against stationary phase P. aeruginosa” value ([4]; alone at 32, 16 and 8 μg/ml) was “slight or no activities”.

`NC[C@H]1O[C@H](O[C@H]2[C@H](O)[C@@H](O[C@H]3O[C@H](CO)[C@@H](O)[C@H](N)[C@H]3O)[C@H](N)C[C@@H]2N)[C@H](O)[C@@H](O)[C@@H]1O` [Kanamycin] was tested, and the MIC [1, 6] was 8 µg/mL.

For `NC[C@H]1O[C@H](O[C@H]2[C@H](O)[C@@H](O[C@H]3O[C@H](CO)[C@@H](O)[C@H](N)[C@H]3O)[C@H](N)C[C@@H]2N)[C@H](N)C[C@@H]1O` [Tobramycin], the MIC ([3]; Pseudomonas aeruginosa, log phase P. aeruginosa, read-out: MIC) was 1 µg/mL, the “optical density at 405 nm” value ([3]; tobramycin 0.01563 μg/ml alone (HT61 0)) was 3.25 and 3.14 and the “optical density at 405 nm” value ([3]; tobramycin 0.03125 μg/ml alone (HT61 0)) was 3.24 and 3.18. For the same molecule, the “optical density at 405 nm” value ([3]; tobramycin 0.0625 μg/ml alone (HT61 0)) was 3.16 and 3.09, the “optical density at 405 nm” value ([3]; tobramycin 0.125 μg/ml alone (HT61 0)) was 3.15 and 3.08 and the “optical density at 405 nm” value ([3]; tobramycin 0.25 μg/ml alone (HT61 0)) was 3.04 and 2.97. For the same molecule, the “optical density at 405 nm” value ([3]; tobramycin 0.5 μg/ml alone (HT61 0)) was 2.19 and 2.18, the “optical density at 405 nm” value ([3]; tobramycin 1 μg/ml alone (HT61 0)) was 0.46 and the “optical density at 405 nm” value ([3]; tobramycin 2 μg/ml alone (HT61 0)) was 0.44 and 0.45. For the same molecule, the “optical density at 405 nm” value ([3]; tobramycin 4 μg/ml alone (HT61 0)) was 0.47 and 0.50, the “optical density at 405 nm” value ([3]; tobramycin 8 μg/ml alone (HT61 0)) was 0.44 and the “activity alone against stationary phase P. aeruginosa” value ([4]; alone at 2 and 1 μg/ml) was “very low or no activities”.

`CC[C@H]1OC(=O)[C@H](C)[C@@H](O[C@H]2C[C@@](C)(OC)[C@@H](O)[C@H](C)O2)[C@H](C)[C@@H](O[C@@H]2O[C@H](C)C[C@H](N(C)C)[C@H]2O)[C@](C)(O)C[C@@H](C)CN(C)[C@H](C)[C@@H](O)[C@]1(C)O` [azithromycin] was tested, and the “activity against clinically latent microorganisms” value [5] was “little or no activity”.

In the case of `CC(=O)NC[C@H]1CN(c2ccc(N3CCOCC3)c(F)c2)C(=O)O1` [linezolid], the “activity against clinically latent microorganisms” value [5] is reported as “little or no activity”.

With `C/C(=C\C(=O)OCCCCCCCCC(=O)O)C[C@@H]1OC[C@H](C[C@@H]2O[C@H]2[C@@H](C)[C@H](C)O)[C@@H](O)[C@H]1O` [mupirocin] the “activity against clinically latent microorganisms” value [5] was “little or no activity”.

Gentamicin gave an MIC [1] of 1 µg/mL and an MBC [2] of 8 µg/mL.

co-amoxiclav was tested, and the “activity against clinically latent microorganisms” value [5] was “little or no activity”.

Reference: patent US9216186B2, “Combination of a pyrroloquinoline compound and an aminoglycodise antimicrobial agent” (HELPERBY THERAPEUTICS LIMITED, priority 2010, dated 2015)
